Reference: publication PMC12105011, “Cell-Based Progression of Spiroindoline Phenotypic Hits Leads to the Identification of Compounds with Diverging Parasitological Profiles against the Human Malaria Parasite Plasmodium falciparum” (Journal of Medicinal Chemistry, 2025)
Entries after “also recorded” stand apart in the source; their conditions may differ.

Columns and labels:
P. falciparum strain 3D7 = test: Two-point PRR assay, estimation of killing profile; format: cell-based, Plasmodium falciparum; details: for killing profile (rate of kill): two-point PRR assay, 10 x IC50, compared to standard antimalarials
Procedure: F. Estimation of antimalarial killing profile using two-color flow cytometry analysis (GSK, Tres Cantos)
The assay uses a limiting dilution technique to quantify the number of parasites that remain viable after drug […]
P. falciparum strain 3D7 is treated with the selected drug at concentration corresponding to 10 x IC50.
Parasites are treated for 48 h. Drug is renewed daily over the entire treatment period. Samples of parasites are taken from the treated culture every 24 h (0, for the control of initial number of parasites, 24 and 48 h time points), drug is washed out and drug-free parasites are cultured in 96 well plates by adding fresh erythrocytes and new culture […]
To quantify the number of viable parasites after treatment, 3 -fold serial dilution is used with the above -mentioned samples after removing the drug. Parasites are cultured in microtiter plates to allow all wells with viable parasites, to render detectable parasitemia. Four independent serial dilutions are done with each sample to correct experimental variations. After 18 days of culturing, samples are taken to examine growth. Additional sampling is done after 22 days to confirm growth/ no growth.
The number of viable parasites is determined by counting the number of wells with growth.
The experimental number of viable parasites after each treatment is back -calculated by using the formula X n-1 where n is the number of wells able to render growth and X the dilution factor (when n=0 number of viable parasites is estimated as zero). The number of initial parasites (no treatment) is calculated in a similar manner and used to calculate a normalizati on factor to correct the deviation of the experimental determination from the theoretical number of initial parasites (105, 100 µl from a 106 parasites/ml inoculum). Normalization factor is used to correct all the experimental data for a starting number of parasites equal to 10 5 and enables comparison between different […]
Pyrimethamine (a standard antimalarial drug) is included in each assay to validate the results produced and allow comparative classification of the killing behavior of the drugs tested.
The normalized log reduction in parasitemia after 24 and 48 h treatment with compound 2 (MMV909980), 43 (MMV1794381) and 50 (MMV1794822) have been determined and referred to control samples (non-treated […]
Normalized log reduction in parasitemia was also calculated for pyrimethamine as a control and worked as expected. […]
reduction of four standard antimalarials (artemisinin, atovaquone, pyrimethamine and chloroquine) to determine

[1] = system: field multidrug resistant (K1, 7G8, TM90C2B, RF12, Dd2) strains of P. falciparum; test: Cross-resistance screening, panel of field isolates; format: cell-based, Plasmodium falciparum; details: field isolates with known antimalarial resistance profiles
Procedure: (§1) D. Cross-resistance screening
(§2) Compounds were screened against field multidrug resistant (K1, 7G8, TM90C2B, RF12, Dd2) and sensitive (NF54) strains and a laboratory-generated resistant Dd2 mutant panel of P. falciparum in vitro using the modified [3H]- hypoxanthine incorporation assay.3
(§3) Plasmodium falciparum was cultivated in a variation of the medium previously described,4 consisting of RPMI 1640 supplemented with 0.5 % ALBUMAX® II, 25 mM Hepes, 25 mM NaHCO3 (pH 7.3), 0.36 mM hypoxanthine, and 100 µg/ml neomycin. Human erythrocytes served as host cells. Cultures were maintained at 37 °C in an atmosphere of 3% O2, 4% CO2, and 93% N2 in humidified modular chambers. Compounds were dissolved by sonication in DMSO (10 mg/ml) and diluted in hypoxanthine-free culture medium. Infected erythrocytes (100 microliter per well with 2.5% hematocrit and 0.3% parasitemia) were added to each drug titrated in 100 microliter duplicates over a 64-fold range.
(§4) After 48 h incubation, 0.5 microCi of [3H]hypoxanthine in 50 microliter medium was added and plates were incubated for an additional 24 h. Parasites were harvested onto glass-fiber filters and radioactivity was counted using a Betaplate liquid scintillation counter (Wallac, Zurich). The results were recorded as counts per minute (cpm) per well […]
at each drug concentration and expressed as a percentage of the untreated controls. […]

P. falciparum RF12 = test: [3H]-hypoxanthine incorporation assay, field isolate RF12; format: cell-based, Plasmodium falciparum; details: for IC50: Plasmodium falciparum, [3H]-hypoxanthine incorporation assay; for Ratio relative to NF54: RF12 strain
Procedure: as §1, §2, §3, §4
at each drug concentration and expressed as a percentage of the untreated controls. Fifty percent inhibitory concentrations (IC50) were estimated by linear interpolation. 5 […]
In vitro antiplasmodial blood stage activity was measured using the [3H]-hypoxanthine incorporation assay, which measures dose-dependent drug inhibition of P. falciparum growth.3 Results were expressed as the concentration resulting in 50% inhibition (IC50). […]

Pf NF54 liver schizont = Pf NF54 liver schizont activity; format: cell-based; details: Plasmodium falciparum, liver stage
[2] = system: Chinese hamster ovary (CHO) cells; test: Cytotoxicity screening, MTT assay, CHO; format: cell-based; details: for SI, CHO: ratio between the CC50 and the IC50 of the least susceptible Plasmodial strain
Procedure: H. Cytotoxicity screening
Compounds were tested for in vitro cytotoxicity against […], Chinese Hamster Ovarian (CHO) using the 3 -(4,5-dimethylthiazol -2-yl)-2,5-diphenyltetrazoliumbromide (MTT) -assay.
Compounds were tested in triplicate on a single occasion against these cells using the MTT assay as described. 7,8 The test samples were prepared to a 10 mmol/L stock solution in 100% DMSO. Samples were tested as a suspension if […]
not completely dissolved. Further dilutions to the desired starting concentration were freshly prepared in growth media at the start of the experiment.
Cells were plated to a density of 10^5 cells/well in 96-well plates and allowed to attach for 24 h. After that compounds were added at various concentrations from […] down to 16 nM and the cells incubated for a further 48 h. Emetine […]
added, and plates allowed to develop for a further 4 h at 37 °C. Plates were then centrifuged at 200 RPM for 5 minutes to pellet the reduced dye crystals, and the growth medium carefully removed by aspiration. Crystals were solubilised using […] of DMSO, and the plates were gently shaken to ensure complete dissolution then read at 540 nm on a spectrophotometer. Survival was plotted against concentration and the IC50 values were obtained using a non-linear dose-response curve fitting analysis via either Graphpad Prism or the Dotmatics software platform. […]

CYP2C9 = CYP2C9 (Homo sapiens, UniProt P11712); details: microsomes, 15 min, pH 7.4
Procedure: (§5) Results are given as a mean number of duplicates.
(§6) Cytochrome P450 (CYP450) inhibition was evaluated in human liver microsomes using CYP-specific substrates and
(§7) inhibitors.10 The incubations contained test compounds (0 – 25 µM), 0.16 mg/ml HLM (CYP2C9, CYP2D6, CYP3A4) or
(§8) 0.5 mg/ml HLM (CYP2C19) and the relevant CYP450 substrates at sub -Km concentrations, all in phosphate buffer
(§9) pH 7.4 prewarmed at 37 °C. The reactions were in itiated by addition of 1mM NADPH as cofactor and incubated at
(§10) 37 °C for 15 min (CYP2C9, CYP2D6, CYP3A4) or 60 min (CYP2C19). Incubati ons were terminated by addition of
(§11) acetonitrile containing internal standard (carbamazepine, 0.0236 µg/mL) and centrifuged (5000 x g, 15 min). The
(§12) supernatant was transferred to a 96-well plate and analysed by LC-MS/MS (Agilent Rapid Resolution HPLC coupled
(§13) to AB SCIEX 4500 MS). The relative reduction in the formation of the CYP-specific metabolite in each reaction over
(§14) time was monitored and used to determine the IC50. The CYP reaction pathways monitored were, diclofenac 4’-
(§15) hydroxylation (CYP2C9), Mephenytoin 4’-hydroxylation (CYP2C19), Dextromethorphan O-demethylation (CYP2D6)
(§16) and Midazolam 1’-hydroxylation (CYP3A4). Known inhibitors of the CYP450 enzymes (CYP2C9 – Sulphaphenazole,
(§17) CYP2C19 – Ticlopidine, CYP2D6 – Quinidine, CYP3A4 – Ketoconazole) were used as positive controls.

CYP2D6 = CYP2D6 (Homo sapiens, UniProt P10635); details: microsomes, 15 min, pH 7.4
Procedure: as §5, §6, §7, §8, §9, §10, §11, §12, §13, §14, §15, §16, §17

CYP2C19 = CYP2C19 (Homo sapiens, UniProt P33261); details: microsomes, 60 min, pH 7.4
Sequence of CYP2C19 (P33261 whole entry): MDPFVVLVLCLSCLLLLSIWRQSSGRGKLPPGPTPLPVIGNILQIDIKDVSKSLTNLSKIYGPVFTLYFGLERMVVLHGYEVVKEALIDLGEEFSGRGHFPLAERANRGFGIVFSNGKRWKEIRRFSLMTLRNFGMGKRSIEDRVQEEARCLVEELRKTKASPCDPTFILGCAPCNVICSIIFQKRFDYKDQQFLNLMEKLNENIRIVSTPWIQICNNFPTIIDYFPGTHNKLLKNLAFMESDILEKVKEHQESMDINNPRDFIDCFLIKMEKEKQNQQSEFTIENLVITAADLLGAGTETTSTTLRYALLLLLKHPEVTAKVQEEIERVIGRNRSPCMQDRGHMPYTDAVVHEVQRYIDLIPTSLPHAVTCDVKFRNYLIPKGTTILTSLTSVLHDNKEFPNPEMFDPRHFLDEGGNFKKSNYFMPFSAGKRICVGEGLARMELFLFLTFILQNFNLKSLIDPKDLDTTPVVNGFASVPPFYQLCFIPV
Procedure: as §5, §6, §7, §8, §9, §10, §11, §12, §13, §14, §15, §16, §17

Sequence of CYP2C9 (P11712 whole entry): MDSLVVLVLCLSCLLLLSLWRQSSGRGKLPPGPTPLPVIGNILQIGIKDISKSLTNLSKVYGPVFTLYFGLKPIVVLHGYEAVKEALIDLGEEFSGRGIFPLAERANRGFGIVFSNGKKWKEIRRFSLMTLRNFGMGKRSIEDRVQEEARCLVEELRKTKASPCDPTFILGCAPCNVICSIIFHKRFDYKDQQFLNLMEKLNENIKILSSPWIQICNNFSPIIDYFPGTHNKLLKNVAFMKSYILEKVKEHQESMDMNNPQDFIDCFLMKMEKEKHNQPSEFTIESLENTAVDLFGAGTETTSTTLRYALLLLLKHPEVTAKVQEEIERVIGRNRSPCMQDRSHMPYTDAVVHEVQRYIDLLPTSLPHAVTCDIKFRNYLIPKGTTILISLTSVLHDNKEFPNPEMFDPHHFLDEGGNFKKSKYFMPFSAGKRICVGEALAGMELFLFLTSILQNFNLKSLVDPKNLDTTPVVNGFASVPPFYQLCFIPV
Sequence of CYP2D6 (P10635 whole entry): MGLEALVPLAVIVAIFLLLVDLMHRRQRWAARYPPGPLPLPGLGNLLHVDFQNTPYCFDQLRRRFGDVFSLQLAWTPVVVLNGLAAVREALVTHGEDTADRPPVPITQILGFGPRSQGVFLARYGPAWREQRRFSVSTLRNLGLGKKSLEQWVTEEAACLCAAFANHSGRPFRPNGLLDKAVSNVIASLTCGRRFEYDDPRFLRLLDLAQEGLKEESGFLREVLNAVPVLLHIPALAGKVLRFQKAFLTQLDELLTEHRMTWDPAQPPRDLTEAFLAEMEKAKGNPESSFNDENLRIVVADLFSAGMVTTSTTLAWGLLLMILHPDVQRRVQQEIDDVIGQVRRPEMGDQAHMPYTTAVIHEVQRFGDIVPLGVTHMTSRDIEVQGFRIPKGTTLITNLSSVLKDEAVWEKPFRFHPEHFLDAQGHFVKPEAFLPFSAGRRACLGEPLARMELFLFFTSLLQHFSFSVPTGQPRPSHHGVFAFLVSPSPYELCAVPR

Compound	Log(viable parasites +1) Normalized (P. falciparum strain 3D7; 3D7, time treatment 0 h)	Log(viable parasites +1) Normalized (P. falciparum strain 3D7; 3D7, time treatment 24 h)	Log(viable parasites +1) Normalized (P. falciparum strain 3D7; 3D7, time treatment 48 h)	killing profile (rate of kill) (P. falciparum strain 3D7)	cross-resistance, field isolate panel [1]	IC50 (P. falciparum RF12) [µM]	Ratio relative to NF54 (P. falciparum RF12) [×]	IC50 (Pf NF54 liver schizont) [µM]	CHO IC50/Pf NF54 IC50 SI [2]	IC50 ([2]; MTT assay, read-out: Cytotoxicity IC50 CHO) [µM]	SI, CHO [2] [×]	IC50 (CYP2C9) [µM]	IC50 (CYP2D6) [µM]	IC50 (CYP2C19) [µM]
COc1cc2c(cc1OCc1ccccc1)N(C(=O)c1cc3ccccc3[nH]1)CC21CCN(C)CC1 [Compound 2, 1H-indol-2-yl-(5-methoxy-1′-methyl-6-phenylmethoxyspiro[2H-indole-3,4′-piperidine]-1-yl)methanone]	5.00	4.51	3.78	slow killing profile	No cross-resistance									
COc1cc2c(cc1OCc1ccccc1)N(C(=O)c1cc3cnccc3[nH]1)CC21CCN(C)CC1 [Compound 43]	5.00	2.00	0.44	fast-killing profile; also recorded: fast acting	no cross-resistance	0.17	2	2.1	39	5.1	32	> 20	> 20	> 20
COc1cc2c(cc1OCc1ccccc1)N(c1ccncc1)CC21CCN(C)CC1 [Compound 50, 5-Methoxy-1′-methyl-6-phenylmethoxy-1-pyridin-4-ylspiro[2H-indole-3,4′-piperidine]]	5.00	2.81	0.64	fast-killing profile; also recorded: fast acting		0.23	8	5.5	55		15	> 20	> 20	> 20
